This is an account of results in ChEMBL document CHEMBL1201862, “PubChem BioAssay data set” (2004).

Holding throughout (test): DTP human tumour cell line panel, 48 h
For assay [1], the system named is EKVX.
For assay [2], the system named is NCI-H226.
Assay [3] has as its system OVCAR-4.
Assay [4] deals with ACHN.
Assay [5] concerns SF-295.
For assay [6], the system named is NCI-H23.
The test system of assay [7] is HCC 2998.
For assay [8], the system named is MOLT-4.
The test system of assay [9] is A549.
The test system of assay [10] is U-251.
Assay [11] concerns CAKI-1.
Assay [12] has as its system MDA-N.
Assay [13] deals with Hs-578T.
Assay [14] has as its system UACC-62.
Assay [15] has as its system OVCAR-8.
Assay [16] concerns NCI/ADR-RES.
For assay [17], the system named is SR.
Assay [18] deals with HCT-15.
Assay [19] has as its system NCI-H522.
The test system of assay [20] is TK-10.

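Interpolation was linear, between the two tested concentrations surrounding the appropriate level; five concentrations were tested over 48 hours in 96-well plates. GI50 is the concentration that inhibits growth by half.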 Activity calls are given as the source filed them. Cut-off read from the data, not from the text of the source: active = GI50 up to about 1.1 µM and inactive = higher.

By GI50 is commonly meant the concentration giving 50% growth inhibition.

With `CC1=C2CC(C)(C)CC(=O)C2(C)CCC1=O` (stereo not given), the GI50 in [1], in assay [2], in assay [3], in assay [4], in assay [5] and in [6] was > 100 µM (inactive) throughout. For the same compound, the GI50 in assay [7], in assay [8], in [9], in [10], in [11] and in [12] was > 100 µM (inactive) throughout. In addition, the GI50 in assay [13] is > 100 µM (inactive); in assay [14], > 100 µM (inactive); in [15] it was > 100 µM (inactive); in [16], > 100 µM (inactive); in assay [17] it was 94.2 µM (inactive); in [18] it was over 100 µM. For the same compound, the GI50 in assay [19] and in assay [20] was > 100 µM (inactive) each time.
